Results published in ChEMBL document CHEMBL1145732, “Non-imidazole heterocyclic histamine H3 receptor antagonists” (Bioorg Med Chem Lett, 2003).

Assays:
Histamine H3 receptor = Histamine H3 receptor (Homo sapiens, UniProt Q9Y5N1); assay: Binding affinity towards human Histamine H3 receptor using [3H]N-methyl-histamine as radioligand
[1] = Half-life was determined; type: ADME; conditions: human
Caco-2 = assay: Permeability was evaluated using Caco-2 cells; type: functional, cell-based; conditions: Homo sapiens
Rattus norvegicus = species: Rattus norvegicus; assay: Compound was evaluated in a functional assay for determining rat pA2; conditions: read-out: pA2 (converted)
SK-N-MC = assay: Compound was evaluated in a functional assay against […] cells stably transfected with the human H3 receptor; type: cell-based; conditions: read-out: pA2 (converted)

Sequence of Histamine H3 receptor (Q9Y5N1 whole entry): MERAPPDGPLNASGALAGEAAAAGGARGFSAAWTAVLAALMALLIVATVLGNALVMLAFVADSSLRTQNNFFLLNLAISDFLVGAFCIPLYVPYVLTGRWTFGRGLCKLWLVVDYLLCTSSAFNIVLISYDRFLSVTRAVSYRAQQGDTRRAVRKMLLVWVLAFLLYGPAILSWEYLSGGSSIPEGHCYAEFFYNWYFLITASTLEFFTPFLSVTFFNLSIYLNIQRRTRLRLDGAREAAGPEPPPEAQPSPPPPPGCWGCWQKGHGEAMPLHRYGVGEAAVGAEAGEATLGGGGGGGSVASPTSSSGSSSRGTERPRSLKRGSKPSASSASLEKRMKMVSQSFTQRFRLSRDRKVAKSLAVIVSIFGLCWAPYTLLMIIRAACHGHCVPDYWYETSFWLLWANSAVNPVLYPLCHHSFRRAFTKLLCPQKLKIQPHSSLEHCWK

Ki (Histamine H3 receptor) [nM]	Compound	other results
46	Cc1cccc2cc(-c3ccc(OCCCN4CCCCC4)cc3)cn12	–
16	Cc1c(-c2ccc(OCCCN3CCCCC3)cc2)cn2ccccc12	–
16	CS(=O)(=O)n1c(-c2ccc(OCCCN3CCCCC3)cc2)cc2ccccc21	–
308	c1cc(OCCCN2CCCCC2)cc(-c2cc3ccccn3c2)c1	–
28	Cc1ccc2cc(-c3ccc(OCCCN4CCCCC4)cc3)cn2c1	–
19	CCc1c(-c2ccc(OCCCN3CCCCC3)cc2)cn2ccccc12	–
2	Cc1c(-c2ccc(OCCCN3CCCCC3)cc2)cc2ccccn12	half-life [1]: 54 min
37	c1ccc(CCc2c(-c3ccc(OCCCN4CCCCC4)cc3)cn3ccccc23)cc1	–
11	c1ccn2nc(-c3ccc(OCCCN4CCCCC4)cc3)cc2c1	–
5	CCc1c(-c2ccc(OCCCN3CCCCC3)cc2)cc2ccccn12	–
11	Cc1cc(OCCCN2CCCCC2)ccc1-c1cn2ccccc2c1C	–
47	c1ccc2[nH]c(-c3ccc(OCCCN4CCCCC4)cc3)cc2c1	–
236	c1ccc(-c2cc3ccccn3c2)c(OCCCN2CCCCC2)c1	–
40	Cc1cccn2cc(-c3ccc(OCCCN4CCCCC4)cc3)cc12	–
40	c1ccc(-c2c(-c3ccc(OCCCN4CCCCC4)cc3)cn3ccccc23)cc1	–
40	Cc1ccn2cc(-c3ccc(OCCCN4CCCCC4)cc3)cc2c1	–
152	Cc1cc(OCCCN2CCCCC2)ccc1-c1cc2ccccn2c1	–
13	c1ccn2cc(-c3ccc(OCCCN4CCCCC4)cc3)cc2c1	half-life [1]: 10 min; Papp (Caco-2): 0.14 ×10⁻⁶ cm/s; Kb (Rattus norvegicus): 19.5 nM; Kb (SK-N-MC): 3.16 nM
